Experimental data: US20260232578A1, “COMPOSITIONS AND METHODS FOR TRANSMUCOSAL ABSORPTION” (Tonix Pharma Limited, priority 2012, published 2026)
Values joined by “and” are separate entries in the source; they are usually repeats but may differ in a detail not shown here. Equal values may be shown once. Read-outs that look alike come from different tables or passages of the source.

Experiments:
[1] = target: T1, adrenergic alpha-2C receptor (Alpha2C) (Homo sapiens, UniProt P18825); assay: Equilibrium receptor binding, recombinant human receptor
T1 construct: expressed in transfected cells
T1 sequence (P18825 1-462): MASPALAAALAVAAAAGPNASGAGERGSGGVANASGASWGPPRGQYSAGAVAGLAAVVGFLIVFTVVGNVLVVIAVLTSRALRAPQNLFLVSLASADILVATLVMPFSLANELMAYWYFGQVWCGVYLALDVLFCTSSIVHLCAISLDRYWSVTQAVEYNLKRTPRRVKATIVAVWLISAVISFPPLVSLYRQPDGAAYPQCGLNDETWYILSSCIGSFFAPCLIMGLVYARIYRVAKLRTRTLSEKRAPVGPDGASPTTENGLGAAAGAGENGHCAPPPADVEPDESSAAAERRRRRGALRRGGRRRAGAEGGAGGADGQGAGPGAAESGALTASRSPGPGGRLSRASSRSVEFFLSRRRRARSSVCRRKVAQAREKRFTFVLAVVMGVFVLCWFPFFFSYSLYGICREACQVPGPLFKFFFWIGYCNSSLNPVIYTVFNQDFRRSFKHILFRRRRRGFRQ

5-HT1A receptor [2] = target: T2, 5-HT1A receptor (Homo sapiens, UniProt P08908); assay: as above
T2 construct: expressed in transfected cells
T2 sequence (P08908 1-422): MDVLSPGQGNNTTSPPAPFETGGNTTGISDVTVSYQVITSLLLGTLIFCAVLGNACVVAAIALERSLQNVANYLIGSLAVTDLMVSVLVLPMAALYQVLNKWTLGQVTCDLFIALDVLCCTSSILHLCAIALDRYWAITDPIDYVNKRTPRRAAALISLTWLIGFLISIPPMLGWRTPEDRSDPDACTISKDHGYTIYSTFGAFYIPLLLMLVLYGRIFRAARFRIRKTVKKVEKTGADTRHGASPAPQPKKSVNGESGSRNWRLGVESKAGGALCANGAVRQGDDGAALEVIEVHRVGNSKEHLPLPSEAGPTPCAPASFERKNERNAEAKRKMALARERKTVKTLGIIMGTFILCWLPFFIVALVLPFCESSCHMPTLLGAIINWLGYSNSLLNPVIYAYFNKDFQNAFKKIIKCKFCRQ

5-HT2C receptor = target: T3, 5-HT2C receptor (Homo sapiens, UniProt P28335); assay: as above
T3 construct: expressed in transfected cells
T3 sequence (P28335 33-458): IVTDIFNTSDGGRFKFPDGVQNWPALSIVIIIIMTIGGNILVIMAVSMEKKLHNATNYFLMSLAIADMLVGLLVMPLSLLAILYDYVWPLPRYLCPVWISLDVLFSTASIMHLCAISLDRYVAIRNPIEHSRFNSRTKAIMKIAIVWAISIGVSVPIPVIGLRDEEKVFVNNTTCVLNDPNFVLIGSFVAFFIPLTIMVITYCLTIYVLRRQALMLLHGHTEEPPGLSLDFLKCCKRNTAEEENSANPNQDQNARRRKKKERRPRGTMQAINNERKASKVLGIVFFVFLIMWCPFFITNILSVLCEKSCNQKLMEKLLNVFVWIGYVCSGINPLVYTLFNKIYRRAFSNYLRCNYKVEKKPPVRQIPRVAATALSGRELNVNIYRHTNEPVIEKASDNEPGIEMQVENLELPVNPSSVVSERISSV

muscarinic M1 receptor [3] = target: T4, muscarinic M1 receptor (Homo sapiens, UniProt P11229); assay: biochemical
T4 sequence (P11229 1-460): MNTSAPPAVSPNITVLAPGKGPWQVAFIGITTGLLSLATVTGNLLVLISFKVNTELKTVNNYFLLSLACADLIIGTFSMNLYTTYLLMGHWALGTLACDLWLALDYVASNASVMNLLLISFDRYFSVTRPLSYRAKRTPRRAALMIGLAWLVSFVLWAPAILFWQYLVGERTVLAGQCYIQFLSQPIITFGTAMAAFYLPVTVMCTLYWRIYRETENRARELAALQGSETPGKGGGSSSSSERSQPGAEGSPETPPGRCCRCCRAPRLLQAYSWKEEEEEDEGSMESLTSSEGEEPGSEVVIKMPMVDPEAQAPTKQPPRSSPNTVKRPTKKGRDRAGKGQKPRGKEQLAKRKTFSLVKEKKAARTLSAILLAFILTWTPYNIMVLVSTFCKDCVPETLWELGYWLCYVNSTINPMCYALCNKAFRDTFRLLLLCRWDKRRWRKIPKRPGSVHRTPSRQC

5-HT1A receptor [4] = target: T2, 5-HT1A receptor; assay: G-protein-dependent signal transduction (functional agonism); format: cell-based
Experimental: (§1) Quantitation was based on peak area ratio of the analytes versus their stable labeled internal standards. A weighted (1/C2), linear regression was performed to determine the concentration of the analytes. All regressions and figures presented in this validation report were generated by MDS Sciex Analyst version 1.4.2 and Thermo Electron Corporation Watson LIMS software, version 7.0.0.01b. […] Select receptors were analyzed in ligand-induced intracellular calcium mobilization.

Sigma 2 = Sigma 2 (Homo sapiens, UniProt Q5BJF2); assay: Equilibrium binding (Table 69)
Chain of Sigma 2 (Q5BJF2 whole entry): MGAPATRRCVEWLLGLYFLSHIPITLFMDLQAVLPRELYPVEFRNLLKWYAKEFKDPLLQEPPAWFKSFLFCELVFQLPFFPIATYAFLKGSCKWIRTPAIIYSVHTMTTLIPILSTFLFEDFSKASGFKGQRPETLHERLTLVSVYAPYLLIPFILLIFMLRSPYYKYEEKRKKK

D3 = target: T5, D3 (Homo sapiens, UniProt P35462); assay: Equilibrium receptor binding, recombinant human receptor
T5 construct: expressed in transfected cells
T5 sequence (P35462 whole entry): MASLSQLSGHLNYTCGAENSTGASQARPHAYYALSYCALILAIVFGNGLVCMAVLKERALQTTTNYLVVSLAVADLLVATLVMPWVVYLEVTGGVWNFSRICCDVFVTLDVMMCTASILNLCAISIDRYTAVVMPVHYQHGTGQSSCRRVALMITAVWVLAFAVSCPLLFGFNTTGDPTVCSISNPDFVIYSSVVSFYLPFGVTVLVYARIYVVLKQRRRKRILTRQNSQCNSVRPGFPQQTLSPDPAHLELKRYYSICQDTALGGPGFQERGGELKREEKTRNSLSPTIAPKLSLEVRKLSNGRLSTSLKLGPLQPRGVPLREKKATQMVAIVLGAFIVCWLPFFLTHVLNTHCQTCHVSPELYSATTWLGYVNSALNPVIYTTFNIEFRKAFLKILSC

histamine H1 receptor = target: T6, histamine H1 receptor (Homo sapiens, UniProt P35367); assay: as above; details: for Ki: H1
T6 construct: expressed in transfected cells
T6 sequence (P35367 whole entry): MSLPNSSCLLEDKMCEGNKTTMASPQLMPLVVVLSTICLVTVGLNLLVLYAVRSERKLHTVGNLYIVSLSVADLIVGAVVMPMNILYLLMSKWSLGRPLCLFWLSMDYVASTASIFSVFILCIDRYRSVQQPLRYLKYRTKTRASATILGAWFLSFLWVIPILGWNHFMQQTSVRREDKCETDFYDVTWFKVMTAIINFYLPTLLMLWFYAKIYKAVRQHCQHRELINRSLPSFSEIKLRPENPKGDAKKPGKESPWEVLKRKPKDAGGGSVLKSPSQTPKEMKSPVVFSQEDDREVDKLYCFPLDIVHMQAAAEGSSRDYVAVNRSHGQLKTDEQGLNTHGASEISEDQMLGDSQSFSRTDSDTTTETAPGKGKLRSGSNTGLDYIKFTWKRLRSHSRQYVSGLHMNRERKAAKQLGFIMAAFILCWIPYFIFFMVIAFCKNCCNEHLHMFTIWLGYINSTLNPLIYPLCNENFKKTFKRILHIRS

α1B = α1B (Homo sapiens, UniProt P35368); assay: Functional antagonism, G-protein-dependent signal transduction (Table 69)
Chain of α1B (P35368 whole entry): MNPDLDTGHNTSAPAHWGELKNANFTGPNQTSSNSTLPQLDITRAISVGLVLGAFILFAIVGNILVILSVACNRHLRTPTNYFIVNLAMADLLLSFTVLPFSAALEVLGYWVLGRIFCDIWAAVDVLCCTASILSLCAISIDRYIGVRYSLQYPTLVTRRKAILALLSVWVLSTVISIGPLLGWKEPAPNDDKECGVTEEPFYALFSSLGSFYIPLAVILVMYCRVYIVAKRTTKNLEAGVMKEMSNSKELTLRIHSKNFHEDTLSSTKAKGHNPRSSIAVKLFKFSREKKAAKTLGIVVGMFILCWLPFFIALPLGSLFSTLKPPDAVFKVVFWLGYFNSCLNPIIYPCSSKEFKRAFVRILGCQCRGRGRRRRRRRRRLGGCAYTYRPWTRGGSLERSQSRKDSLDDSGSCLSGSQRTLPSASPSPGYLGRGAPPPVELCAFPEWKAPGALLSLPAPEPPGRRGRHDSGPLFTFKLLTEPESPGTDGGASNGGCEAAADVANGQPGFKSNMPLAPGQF

[5] = target: T7, adrenergic alpha-2A receptor (Homo sapiens, UniProt P08913); assay: Functional antagonism, ligand-induced intracellular calcium mobilization; format: cell-based; details: read-out: IC50, functional antagonist
T7 construct: expressed in transfected cells
T7 sequence (P08913 whole entry): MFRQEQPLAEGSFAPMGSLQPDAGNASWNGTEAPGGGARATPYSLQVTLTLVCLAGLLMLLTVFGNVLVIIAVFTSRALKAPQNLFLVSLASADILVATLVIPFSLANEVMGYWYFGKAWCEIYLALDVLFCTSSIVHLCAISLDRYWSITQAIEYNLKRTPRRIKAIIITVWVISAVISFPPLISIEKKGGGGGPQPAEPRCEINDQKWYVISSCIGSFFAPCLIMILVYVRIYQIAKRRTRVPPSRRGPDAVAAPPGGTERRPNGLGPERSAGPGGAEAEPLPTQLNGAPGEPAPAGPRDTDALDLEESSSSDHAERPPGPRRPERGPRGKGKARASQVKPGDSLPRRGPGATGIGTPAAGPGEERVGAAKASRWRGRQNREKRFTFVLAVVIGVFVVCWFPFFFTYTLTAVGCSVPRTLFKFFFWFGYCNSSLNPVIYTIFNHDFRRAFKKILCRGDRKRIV
Experimental: as §1

muscarinic M1 receptor [6] = target: T4, muscarinic M1 receptor; assay: G-protein-independent signal transduction, β-arrestin signaling; format: cell-based; design: expressed in transfected cells; details: for IC50: M1, β-arrestin signaling, read-out: IC50, functional antagonist
5-HT2B [7] = target: T8, 5-HT2B (Homo sapiens, UniProt P41595); assay: Equilibrium receptor binding, recombinant human receptor
T8 construct: expressed in transfected cells
T8 sequence (P41595 whole entry): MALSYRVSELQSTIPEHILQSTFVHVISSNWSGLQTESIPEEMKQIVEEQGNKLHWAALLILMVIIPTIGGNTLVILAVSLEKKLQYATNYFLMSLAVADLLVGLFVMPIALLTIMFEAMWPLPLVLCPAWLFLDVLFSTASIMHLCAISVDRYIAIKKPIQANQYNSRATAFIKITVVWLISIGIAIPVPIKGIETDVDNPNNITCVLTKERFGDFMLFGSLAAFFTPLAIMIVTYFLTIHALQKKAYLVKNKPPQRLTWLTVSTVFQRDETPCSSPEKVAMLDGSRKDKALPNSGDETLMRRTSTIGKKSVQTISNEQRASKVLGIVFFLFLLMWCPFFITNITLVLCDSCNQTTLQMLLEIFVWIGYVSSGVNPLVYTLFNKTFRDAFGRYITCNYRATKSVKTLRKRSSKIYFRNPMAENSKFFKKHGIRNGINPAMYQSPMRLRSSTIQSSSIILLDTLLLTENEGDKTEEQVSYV

5-HT2A = target: T9, 5-HT2A (Homo sapiens, UniProt P28223); assay: biochemical; format: binding; details: for Ki: 5-HT2A
T9 construct: expressed in transfected cells
T9 sequence (P28223 whole entry): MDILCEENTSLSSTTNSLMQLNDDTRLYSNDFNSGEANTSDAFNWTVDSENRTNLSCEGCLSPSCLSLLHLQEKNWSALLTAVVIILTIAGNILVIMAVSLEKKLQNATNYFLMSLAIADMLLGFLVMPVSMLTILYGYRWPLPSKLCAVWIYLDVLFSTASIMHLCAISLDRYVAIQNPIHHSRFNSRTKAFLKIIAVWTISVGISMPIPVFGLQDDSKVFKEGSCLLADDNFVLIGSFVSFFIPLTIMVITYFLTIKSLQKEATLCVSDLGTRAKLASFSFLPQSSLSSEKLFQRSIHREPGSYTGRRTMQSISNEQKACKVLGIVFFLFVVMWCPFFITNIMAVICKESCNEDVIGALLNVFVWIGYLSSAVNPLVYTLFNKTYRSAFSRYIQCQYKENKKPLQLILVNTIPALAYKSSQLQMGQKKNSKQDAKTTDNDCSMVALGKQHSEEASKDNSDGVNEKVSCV

5-HT2B [8] = target: T8, 5-HT2B; assay: G-protein-dependent signal transduction, turnover of inositol triphosphate (IP); format: cell-based; details: read-out: IC50 (nM) (Antagonist)
[9] = read-out: EC50, functional agonist
[10] = read-out: IC50 (nM) (Antagonist)

SMILES | Ki [1] | Ki (5-HT1A receptor [2]) [nM] | Ki (5-HT2C receptor) | Ki (muscarinic M1 receptor [3]) [nM] | EC50 (5-HT1A receptor [4]; [9]) [nM] | Ki (D3) [nM] | Ki (histamine H1 receptor) | IC50 (α1B) [nM] | IC50 [5] [nM] | IC50 (muscarinic M1 receptor [6]) [nM] | Ki (5-HT2B [7]) [nM] | Ki (5-HT2A) | IC50 (5-HT2B [8]) [nM] | further results
CNCCC=C1c2ccccc2C=Cc2ccccc21 [norcyclobenzaprine, 3-(5H-dibenzo[a,d]cyclohepten-5-ylidene)-N-methyl-1-propanamine] | 48 nM | 76 | 43 nM | 30 | 3200 | 98 | 5.6 nM and 5.9 nM | 790 | 6400 | 266 | 12 | 13 nM and 13.2 nM | 1400 | Hill plot ratio (Hill slope) (5-HT1A receptor [2]; equilibrium binding): 4.07; Hill plot ratio (Hill slope) (5-HT2C receptor; equilibrium binding): 1.40; Four parameter Hill slope (or fit slope) ratio; Ca2+ signaling (5-HT1A receptor [4]): −0.79; IC50 (5-HT1A receptor [4]; [10]): 5300 nM; Ki (Sigma 2): 480 nM; Hill plot ratio (Hill slope) (histamine H1 receptor): 1.04; Four parameter Hill slope (or fit slope) ratio; β-arrestin signaling (muscarinic M1 receptor [6]; M1): 1.05; Hill plot ratio (Hill slope) (5-HT2B [7]; equilibrium binding): 1.10; Hill plot ratio (Hill slope) (5-HT2A): 0.50
CN(C)CCC=C1c2ccccc2C=Cc2ccccc21 [cyclobenzaprine, 3-(5H-dibenzo[a,d]cyclohepten-5-ylidene)-N,N-dimethyl-1-propanamine] | 21 nM and 25 nM | 1100 | 5.2 nM and 43 nM | 7.9 | 5300 | 34 | 1.3 nM | 530 | 4300 | 81 | 15 | 5.2 nM and 5.1 nM | 760 | EC50 (5-HT1A receptor [4]; read-out: EC50 (nM) (Agonist)): 3200 nM; IC50 (Sigma 2; [10]): 2000 nM
